Source: patent US11214540B2, “Compositions for treating neurodegenerative diseases” (COGNITION THERAPEUTICS, INC., priority 2017, dated 2022)
Like-named read-outs stand apart in the source and are kept apart here.

How the values were obtained:
[1] = tested on: Abeta oligomer-induced membrane trafficking deficits in primary hippocampal neurons; assay: Membrane Trafficking/Exocytosis (MTT) assay, Abeta oligomer effect on neurons; format: cell-based, rat; conditions: membrane trafficking, read-out: EC50 Abeta;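 note: compound potency for inhibiting the Abeta oligomer effect on exocytosis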
Method in brief: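 Rat E18 hippocampal neurons cultured 3 weeks received compound (100 uM to 0.001 nM), then vehicle or Abeta 1-42 oligomers (3 μM total Abeta), for 1-24 h at 37 °C. MTT was added for 1 h, and formazan vesicle exocytosis was quantified by automated imaging with DAPI toxicity check. Tukey-Kramer comparisons were made with N=4.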

potassium channel hERG = potassium channel hERG (Homo sapiens (Human), UniProt Q12809); assay: In vitro testing for hERG inhibition; format: biochemical; conditions: in vitro toxicity potassium channel hERG
Method: In vitro testing for hERG inhibition was performed in a standard assay (See: Haverkamp W, Breithardt G, Carnm A J, Janse M J, Rosen M R, Antzelevitch C, Escande D, Franz M, Malik M, Moss A and Shah R. (2000) Eur Heat J 21 (15); 1216-31).

log P = format: physicochemical
Method in brief: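 Ratio of un-ionized compound concentrations between octanol and water, with aqueous pH set so the un-ionized form predominates. Value given as the log of the octanol/water ratio.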

[2] = target: Sigma-1 receptors on Jurkat cell membranes (Homo sapiens (Human), UniProt Q99720); assay: Competitive Radioligand Binding Assay 1, Sigma-1 binding ([3H](+)pentazocine displacement); conditions: sigma-1 receptor affinity; read-out: S1 Ki
Method: Certain compounds were tested for interaction with several receptors by blocking the binding or action of their agonists or antagonists. Some compounds were tested to see whether they interact directly with known cellular receptor or signaling proteins. Compounds can be tested for the ability to displace binding of known agonists or antagonists of a given human receptor that was overexpressed in cell lines or isolated from tissue. Compounds can also be tested for the ability to block downstream signaling induced by agonists or antagonists of a given human receptor. Compounds can be tested for action at 100 known receptors, and it is desirable that specific activity will occur at only a small subset of CNS-relevant receptors.
For Sigma-1 binding, various concentrations of test compounds from 100 μM to 1 nM were used to displace 8 nM [3H](+)pentazocine from endogenous receptors on Jurkat cell membranes (Ganapathy M E et al. 1991, J Pharmacol. Exp. Ther. 289:251-260). 10 μM Haloperidol was used to define non-specific binding. […] (Bowen W D, et al. 1993, Mol. Neuropharmcol 3:117-126). 10 μM Haloperidol was used to define non-specific binding. Reactions were terminated by rapid filtration through Whatman GF/C filters using a Brandel 12R cell harvester followed by two washes with ice-cold buffer. Radioactivity on the dried filter discs was measured using a liquid scintillation analyzer (Tri-Carb 2900TR; PerkinElmer Life and Analytical Sciences). The displacement curves were plotted and the Ki values of the test compounds for the receptor subtypes were determined using GraphPad Prism (GraphPad Software Inc., San Diego, Calif.). The percentage specific binding was determined by dividing the difference between total bound (disintegrations per minute) and nonspecific bound (disintegrations per minute) by the total bound (disintegrations per minute). […]

[3] = Mouse liver microsome (MLM) stability; format: in vitro ADME; conditions: microsomal stability in mouse liver microsomes (MLM)
Method: A first pharmacokinetic study was performed in microsomes of mice mouse liver microsomes, MLM).
Microsomal stability experiments and plasma stability experiments were performed to determine metabolic and hepatic stability of candidate compounds.

[4] = target: Sigma-2 receptors on membranes from rat cerebral cortex (Rattus norvegicus (Rat), UniProt Q5U3Y7); assay: Competitive Radioligand Binding Assay 1, Sigma-2 binding ([3H]DTG displacement with (+)pentazocine mask); conditions: sigma-2 receptor affinity; read-out: S2 Ki
Method in brief: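 Displacement of [3H]DTG by test compounds from rat cerebral cortex membranes in presence of 300 nM (+)pentazocine masking sigma-1 sites; 10 μM haloperidol defines non-specific binding. Filtration and scintillation counting; Ki from displacement curves.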

Chain of potassium channel hERG (Q12809 whole entry): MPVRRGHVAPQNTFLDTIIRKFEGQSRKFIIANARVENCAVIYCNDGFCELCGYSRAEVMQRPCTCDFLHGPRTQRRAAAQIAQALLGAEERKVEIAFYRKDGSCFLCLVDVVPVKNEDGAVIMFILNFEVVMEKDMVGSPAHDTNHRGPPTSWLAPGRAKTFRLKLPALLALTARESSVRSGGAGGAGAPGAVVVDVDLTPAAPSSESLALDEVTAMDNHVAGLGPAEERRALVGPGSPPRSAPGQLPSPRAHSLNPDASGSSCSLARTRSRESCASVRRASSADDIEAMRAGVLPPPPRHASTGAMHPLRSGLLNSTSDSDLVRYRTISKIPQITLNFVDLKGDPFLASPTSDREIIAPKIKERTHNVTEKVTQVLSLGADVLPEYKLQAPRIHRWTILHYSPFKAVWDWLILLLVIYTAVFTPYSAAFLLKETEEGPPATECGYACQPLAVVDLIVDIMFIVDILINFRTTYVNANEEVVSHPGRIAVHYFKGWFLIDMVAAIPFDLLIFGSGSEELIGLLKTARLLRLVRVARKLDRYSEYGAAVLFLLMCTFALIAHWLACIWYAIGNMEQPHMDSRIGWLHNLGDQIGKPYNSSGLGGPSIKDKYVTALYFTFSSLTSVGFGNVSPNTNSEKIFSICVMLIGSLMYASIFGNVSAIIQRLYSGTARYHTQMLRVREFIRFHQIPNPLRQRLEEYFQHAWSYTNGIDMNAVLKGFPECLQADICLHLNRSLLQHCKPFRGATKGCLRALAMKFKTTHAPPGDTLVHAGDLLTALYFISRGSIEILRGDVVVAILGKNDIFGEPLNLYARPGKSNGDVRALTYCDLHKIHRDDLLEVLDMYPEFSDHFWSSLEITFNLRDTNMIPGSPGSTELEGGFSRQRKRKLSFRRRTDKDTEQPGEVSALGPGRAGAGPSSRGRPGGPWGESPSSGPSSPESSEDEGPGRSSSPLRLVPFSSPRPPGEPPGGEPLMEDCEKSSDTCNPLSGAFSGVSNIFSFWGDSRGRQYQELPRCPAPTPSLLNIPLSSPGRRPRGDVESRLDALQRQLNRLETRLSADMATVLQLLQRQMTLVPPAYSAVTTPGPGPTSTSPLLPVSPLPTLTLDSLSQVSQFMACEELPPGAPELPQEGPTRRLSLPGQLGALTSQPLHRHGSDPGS
Chain of Sigma-2 receptors on membranes from rat cerebral cortex (Q5U3Y7 whole entry): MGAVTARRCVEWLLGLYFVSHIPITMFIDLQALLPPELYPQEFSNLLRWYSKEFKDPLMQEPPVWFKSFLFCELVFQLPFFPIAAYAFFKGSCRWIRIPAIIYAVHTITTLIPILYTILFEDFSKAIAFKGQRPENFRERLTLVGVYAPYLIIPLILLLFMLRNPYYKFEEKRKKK
Chain of Sigma-1 receptors on Jurkat cell membranes (Q99720 whole entry): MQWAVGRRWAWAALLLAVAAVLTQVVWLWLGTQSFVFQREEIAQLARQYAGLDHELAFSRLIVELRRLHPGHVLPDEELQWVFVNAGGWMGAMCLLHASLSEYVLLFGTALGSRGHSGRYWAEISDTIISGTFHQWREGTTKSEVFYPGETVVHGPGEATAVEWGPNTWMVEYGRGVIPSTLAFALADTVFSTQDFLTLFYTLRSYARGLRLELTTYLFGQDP

Compound	log P (log P)	Ki [2] [µM]	MLM T1/2 [3] [min]	Ki [4] [µM]	logP (log P; octanol/water)	half-life ([3]; read-out: MLM T1/2) [min]	EC50 [1] [µM]	IC50 (potassium channel hERG) [µM]	EC50 ([1]; Rattus norvegicus, Hippocampal neuron) [µM]
CC(C)=CC(CC(C)(C)c1ccc(Cl)cc1)N1CCC(C)(C)CC1 (stereo not drawn) [Compound 31]	6.7	0.041	21	0.028			0.7	10.9	
CC(C)=CC(CC(C)(C)c1ccc(F)cc1)N1CCC2(CCOCC2)CC1 (stereo not drawn) [Compound 36]	5.41	0.012	25	0.04			20	10	
CC(C)=CC(CC(C)(C)c1ccc(C(F)(F)F)cc1)N1CCC(O)CC1 (stereo not drawn) [Compound 38]	4.85	0.19	84	0.042			4.5	16.2	
CC(C)=CC(CC(C)(C)c1ccc(Cl)cc1)N1CCC2(CCOCC2)CC1 (stereo not drawn) [Compound 41]	5.87	0.016	35	0.067			1.6	4	
CC(C)=CC(CC(C)(C)c1ccc(Cl)cc1)N1CCC(C2CCN(C)CC2)CC1 (stereo not drawn) [Compound 43]	6.37	0.061	29	0.074			0.3	4.9	
CC(C)=CC(CC(C)(C)c1ccc(C(F)(F)F)cc1)N1CCCCC1 (stereo not drawn) [Compound 61]	6.38	0.16	53	0.23			4.7	7.3	
CC(C)=CC(CC(C)(C)c1ccc(F)cc1)N1CCC(C)(O)CC1 (stereo not drawn) [Compound 62]	4.4	0.13	60	0.23			0.8	41	
CC(C)=CC(CC(C)(C)c1ccc(F)cc1)N1CCCCC1 (stereo not drawn) [Compound 68]	5.65	0.5	11	0.3			20	27	
CC(C)=CC(CC(C)(C)c1ccc(C(F)(F)F)cc1)N1CCC(C(F)(F)F)CC1 (stereo not drawn) [Compound 70]	6.95	0.033	14	0.34			20	16.3	
CC(C)=CC(CC(C)(C)c1ccc(C(F)(F)F)cc1)N1CCOCC1 (stereo not drawn) [Compound 72]	5.32	0.77	2.1	0.4			20	80	
CC(C)=CC(CC(C)(C)c1ccc(F)cc1)N1CCC(O)CC1 (stereo not drawn) [Compound 79]	4.12	1.2	74	0.94			1.9	29	
CC(C)=CC(CC(C)(C)c1ccc(S(C)(=O)=O)cc1)N1CCC2(CCOCC2)CC1 (stereo not drawn) [Compound 82]	4.11	0.38	60	2.8			20	100	
CC(C)=CC(CC(C)(C)c1ccc(C(F)(F)F)cc1)N1CCC(C2CCOCC2)CC1 (stereo not drawn) [Example 9]		0.013		0.0018	6.58	114		1	0.5

The next lines start with results.

log P (log P)	Ki [2] [µM]	MLM T1/2 [3] [min]	Ki [4] [µM]	logP (log P; octanol/water)	half-life ([3]; read-out: MLM T1/2) [min]	Compound	EC50 [1] [µM]	IC50 (potassium channel hERG) [µM]	EC50 ([1]; Rattus norvegicus, Hippocampal neuron) [µM]
6.49	0.14	8.2	0.0092			COCCCC1CCN(C(C=C(C)C)CC(C)(C)c2ccc(Cl)cc2)CC1 (stereo not drawn) [Compound 23]	0.95	2.2	
5.68	0.0061	60	0.018			CC(C)=CC(CC(C)(C)c1ccc(C(F)(F)F)cc1)N1CCC(CCO)CC1 (stereo not drawn) [Compound 28]	4	10.2	
5.31	0.056	60	0.039			CC(C)=CC(CC(C)(C)c1ccc(C(F)(F)F)cc1)N1CCC(CO)CC1 (stereo not drawn) [Compound 35]	20	13.4	
5.41	0.074	28	0.11			CC(C)=CC(CC(C)(C)c1ccc(Cl)cc1)N1CCC(CCO)CC1 (stereo not drawn) [Compound 53]	20	13.3	
5.47	0.025	3.6	0.12			CC(C)=CC(CC(C)(C)c1ccc(Cl)cc1)N1CCC(F)CC1 (stereo not drawn) [Compound 55]	2.5	7.2	
4.94	0.064	39	0.16			CC(C)=CC(CC(C)(C)c1ccc(F)cc1)N1CCC(CCO)CC1 (stereo not drawn) [Compound 58]	0.5	14	
4.86	0.029	87	0.41			CC(C)=CC(CC(C)(C)c1ccc(Cl)cc1)N1CCC(C)(O)CC1 (stereo not drawn) [Compound 73]	0.7	24	
4.58	0.54	44	0.8			CC(C)=CC(CC(C)(C)c1ccc(Cl)cc1)N1CCC(O)CC1 (stereo not drawn) [Compound 77]	20	15.2	
